Numbers after ± are expanded uncertainties. Each block holds one compound with its values, some of them ahead of it.
What was measured:
[1] = 298.15 K; 100 kPa; Liquid; Vibrating tube method
[2] = xn = mol fraction of the nth substance listed; settings: 298.15 K, 100 kPa, Liquid, Vibrating tube method

SMILES: CCCCCCCCCCO [decan-1-ol]
- mass density [1]: 826.1 ± 1 kg/m3

SMILES: CCCCCCCCCCO [decan-1-ol] + CCCCC(=O)O
- mass density ([2]; x2 = 0): 826.1 ± 1 kg/m3

SMILES: CCCCCCCO [heptan-1-ol]
- mass density [1]: 818.7 ± 1 kg/m3

SMILES: CCCCCCCO [heptan-1-ol] + CCCCC(=O)O
- mass density ([2]; x2 = 0): 818.7 ± 1 kg/m3

SMILES: CCCCCCO [hexan-1-ol]
- mass density [1]: 815.1 ± 1 kg/m3

SMILES: CCCCCCO [hexan-1-ol] + CCCCC(=O)O
- mass density ([2]; x2 = 0): 815.1 ± 1 kg/m3

SMILES: CCCCCCCCCO [nonan-1-ol]
- mass density [1]: 824 ± 1 kg/m3

SMILES: CCCCCCCCCO [nonan-1-ol] + CCCCC(=O)O
- mass density ([2]; x2 = 0): 824 ± 1 kg/m3

SMILES: CCCCCCCCO [octan-1-ol]
- mass density [1]: 821.4 ± 1 kg/m3

SMILES: CCCCCCCCO [octan-1-ol] + CCCCC(=O)O
- mass density ([2]; x2 = 0): 821.4 ± 1 kg/m3

SMILES: CCCCCO [pentan-1-ol]
- mass density [1]: 810.8 ± 1 kg/m3

SMILES: CCCCCO [pentan-1-ol] + CCCCC(=O)O
- mass density ([2]; x2 = 0): 810.8 ± 1 kg/m3

SMILES: CCCCC(=O)O [pentanoic acid]
- mass density [1]: 935.1 ± 1 kg/m3

Second part, the compound after the results:

- mass density ([2]; x1 = 0.0809): 831.4 ± 1 kg/m3
- mass density ([2]; x1 = 0.1598): 837 ± 1 kg/m3
- mass density ([2]; x1 = 0.2406): 843 ± 1 kg/m3
- mass density ([2]; x1 = 0.3493): 852 ± 1 kg/m3
- mass density ([2]; x1 = 0.4405): 860.2 ± 1 kg/m3
- mass density ([2]; x1 = 0.5601): 872.3 ± 1 kg/m3
- mass density ([2]; x1 = 0.6502): 882.5 ± 1 kg/m3
- mass density ([2]; x1 = 0.7406): 893.9 ± 1 kg/m3
- mass density ([2]; x1 = 0.8504): 909.6 ± 1.1 kg/m3
- mass density ([2]; x1 = 0.9411): 924.2 ± 1.1 kg/m3
- mass density ([2]; x1 = 1): 935.1 ± 1 kg/m3
SMILES: CCCCC(=O)O [pentanoic acid] + CCCCCCCCCCO

- mass density ([2]; x1 = 0.0802): 830 ± 1 kg/m3
- mass density ([2]; x1 = 0.1604): 836.1 ± 1 kg/m3
- mass density ([2]; x1 = 0.2394): 842.8 ± 1 kg/m3
- mass density ([2]; x1 = 0.3496): 852.5 ± 1 kg/m3
- mass density ([2]; x1 = 0.4397): 861.2 ± 1 kg/m3
- mass density ([2]; x1 = 0.5605): 873.9 ± 1 kg/m3
- mass density ([2]; x1 = 0.6497): 884.3 ± 1 kg/m3
- mass density ([2]; x1 = 0.7401): 895.6 ± 1 kg/m3
- mass density ([2]; x1 = 0.8502): 911 ± 1 kg/m3
- mass density ([2]; x1 = 0.9403): 925 ± 1.1 kg/m3
- mass density ([2]; x1 = 1): 935.1 ± 1 kg/m3
SMILES: CCCCC(=O)O [pentanoic acid] + CCCCCCCCCO

- mass density ([2]; x1 = 0.0809): 828.2 ± 1 kg/m3
- mass density ([2]; x1 = 0.1604): 835.1 ± 1 kg/m3
- mass density ([2]; x1 = 0.2392): 842.4 ± 1 kg/m3
- mass density ([2]; x1 = 0.3496): 853 ± 1 kg/m3
- mass density ([2]; x1 = 0.4399): 862.3 ± 1 kg/m3
- mass density ([2]; x1 = 0.5605): 875.5 ± 1 kg/m3
- mass density ([2]; x1 = 0.6497): 886.1 ± 1 kg/m3
- mass density ([2]; x1 = 0.7401): 897.4 ± 1 kg/m3
- mass density ([2]; x1 = 0.8504): 912.4 ± 1 kg/m3
- mass density ([2]; x1 = 0.9403): 925.7 ± 1.1 kg/m3
- mass density ([2]; x1 = 1): 935.1 ± 1 kg/m3
SMILES: CCCCC(=O)O [pentanoic acid] + CCCCCCCCO

- mass density ([2]; x1 = 0.0812): 826.5 ± 1 kg/m3
- mass density ([2]; x1 = 0.1601): 834.3 ± 1 kg/m3
- mass density ([2]; x1 = 0.24): 842.5 ± 1 kg/m3
- mass density ([2]; x1 = 0.3506): 854.2 ± 1 kg/m3
- mass density ([2]; x1 = 0.4398): 864 ± 1 kg/m3
- mass density ([2]; x1 = 0.5605): 877.8 ± 1 kg/m3
- mass density ([2]; x1 = 0.6496): 888.5 ± 1 kg/m3
- mass density ([2]; x1 = 0.7405): 899.7 ± 1 kg/m3
- mass density ([2]; x1 = 0.8501): 914.1 ± 1 kg/m3
- mass density ([2]; x1 = 0.9405): 926.5 ± 1 kg/m3
- mass density ([2]; x1 = 1): 935.1 ± 1 kg/m3
SMILES: CCCCC(=O)O [pentanoic acid] + CCCCCCCO

- mass density ([2]; x1 = 0.0924): 825.4 ± 1 kg/m3
- mass density ([2]; x1 = 0.1783): 835.2 ± 1 kg/m3
- mass density ([2]; x1 = 0.264): 845.1 ± 1 kg/m3
- mass density ([2]; x1 = 0.3796): 858.6 ± 1 kg/m3
- mass density ([2]; x1 = 0.4718): 869.5 ± 1 kg/m3
- mass density ([2]; x1 = 0.5914): 883.9 ± 1 kg/m3
- mass density ([2]; x1 = 0.6785): 894.5 ± 1 kg/m3
- mass density ([2]; x1 = 0.7639): 905 ± 1 kg/m3
- mass density ([2]; x1 = 0.8656): 917.8 ± 1 kg/m3
- mass density ([2]; x1 = 0.9468): 928.2 ± 1 kg/m3
- mass density ([2]; x1 = 1): 935.1 ± 1 kg/m3
SMILES: CCCCC(=O)O [pentanoic acid] + CCCCCCO

- mass density ([2]; x1 = 0.0807): 821.4 ± 1 kg/m3
- mass density ([2]; x1 = 0.1596): 831.9 ± 1 kg/m3
- mass density ([2]; x1 = 0.2398): 842.4 ± 1 kg/m3
- mass density ([2]; x1 = 0.3501): 856.7 ± 1 kg/m3
- mass density ([2]; x1 = 0.4401): 868.2 ± 1 kg/m3
- mass density ([2]; x1 = 0.5604): 883.1 ± 1 kg/m3
- mass density ([2]; x1 = 0.6498): 894 ± 1 kg/m3
- mass density ([2]; x1 = 0.7399): 904.7 ± 1 kg/m3
- mass density ([2]; x1 = 0.8498): 917.6 ± 1 kg/m3
- mass density ([2]; x1 = 0.9396): 928.1 ± 1 kg/m3
- mass density ([2]; x1 = 1): 935.1 ± 1 kg/m3
SMILES: CCCCC(=O)O [pentanoic acid] + CCCCCO

Source: the NIST ThermoML archive (doi:10.1021/acs.jced.8b01189)
